Measurements reported in ChEMBL document CHEMBL1201862, “PubChem BioAssay data set” (2004).
Calls of active or inactive are those of the source.

How the values were obtained:
[1] = HEp-2 cell cytotoxicity, dose response, cytotoxicity control for RSV inhibitor project, HTS (AID 2410); assay type: functional; settings: human respiratory syncytial virus
Cytochrome P450 1A2 = target: T1, Cytochrome P450 1A2 (Homo sapiens, UniProt P05177);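 also: PubChem cytochrome P450 panel assay, CYP1A2 panel member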
T1 sequence (P05177 whole entry): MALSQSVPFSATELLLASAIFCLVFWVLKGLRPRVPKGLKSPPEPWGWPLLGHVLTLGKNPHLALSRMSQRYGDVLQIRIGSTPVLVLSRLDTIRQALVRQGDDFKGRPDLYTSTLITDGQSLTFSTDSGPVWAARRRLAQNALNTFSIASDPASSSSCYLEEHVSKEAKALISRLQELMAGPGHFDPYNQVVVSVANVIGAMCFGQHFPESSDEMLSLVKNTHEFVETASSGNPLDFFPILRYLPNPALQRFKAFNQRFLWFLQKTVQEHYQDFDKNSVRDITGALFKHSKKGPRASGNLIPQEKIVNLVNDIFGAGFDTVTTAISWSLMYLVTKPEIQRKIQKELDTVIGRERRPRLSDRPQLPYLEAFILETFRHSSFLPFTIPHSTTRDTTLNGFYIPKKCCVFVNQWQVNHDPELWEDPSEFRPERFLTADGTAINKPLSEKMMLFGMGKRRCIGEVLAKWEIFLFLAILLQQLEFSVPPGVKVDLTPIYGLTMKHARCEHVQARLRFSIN

Cytochrome P450 2C9 = Cytochrome P450 2C9 (Homo sapiens, UniProt P11712)
Cytochrome P450 2C9, sequence (P11712 whole entry): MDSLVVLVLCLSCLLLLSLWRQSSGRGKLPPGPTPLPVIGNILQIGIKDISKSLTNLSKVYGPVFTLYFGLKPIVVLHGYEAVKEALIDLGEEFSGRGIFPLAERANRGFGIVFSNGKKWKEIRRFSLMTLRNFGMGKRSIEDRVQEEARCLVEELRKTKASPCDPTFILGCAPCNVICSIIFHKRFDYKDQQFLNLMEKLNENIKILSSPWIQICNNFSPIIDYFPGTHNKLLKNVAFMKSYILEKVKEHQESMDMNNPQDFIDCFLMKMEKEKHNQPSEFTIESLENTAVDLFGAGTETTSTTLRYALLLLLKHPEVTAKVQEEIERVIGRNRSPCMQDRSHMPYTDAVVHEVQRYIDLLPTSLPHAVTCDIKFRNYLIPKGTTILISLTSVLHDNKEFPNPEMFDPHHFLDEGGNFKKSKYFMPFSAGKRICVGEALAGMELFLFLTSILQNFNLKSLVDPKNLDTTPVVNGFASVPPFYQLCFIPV

[2] = inhibitors of firefly luciferase expression or activity, dose response, H4 neuroglioma cells, luminescence (AID 1990); assay type: functional, cell-based
[3] = Luminescence Cell-Based Dose Response HTS to Identify Inhibitors of 5'UTR Stem-Loop Driven Prion Protein mRNA Translation in H4 Neuroglioblastoma Cells. [Related pubchem assays: 1827 (Project Summary), 1813 (Primary HTS)]; assay type: functional
[4] = inhibitors of SNCA 5'UTR-driven reporter translation, confirmation, H4 neuroglioma cells, luminescence (AID 1988); assay type: functional, cell-based
Cytochrome P450 2C19 = Cytochrome P450 2C19 (Homo sapiens, UniProt P33261); assay: Cytochrome panel assay with activity outcomes. Panel member name: p450-cyp2c19 Compounds with AC50 equal or less than 10 uM are considered active; assay type: functional; settings: read-out: AC50
Cytochrome P450 2C19, sequence (P33261 whole entry): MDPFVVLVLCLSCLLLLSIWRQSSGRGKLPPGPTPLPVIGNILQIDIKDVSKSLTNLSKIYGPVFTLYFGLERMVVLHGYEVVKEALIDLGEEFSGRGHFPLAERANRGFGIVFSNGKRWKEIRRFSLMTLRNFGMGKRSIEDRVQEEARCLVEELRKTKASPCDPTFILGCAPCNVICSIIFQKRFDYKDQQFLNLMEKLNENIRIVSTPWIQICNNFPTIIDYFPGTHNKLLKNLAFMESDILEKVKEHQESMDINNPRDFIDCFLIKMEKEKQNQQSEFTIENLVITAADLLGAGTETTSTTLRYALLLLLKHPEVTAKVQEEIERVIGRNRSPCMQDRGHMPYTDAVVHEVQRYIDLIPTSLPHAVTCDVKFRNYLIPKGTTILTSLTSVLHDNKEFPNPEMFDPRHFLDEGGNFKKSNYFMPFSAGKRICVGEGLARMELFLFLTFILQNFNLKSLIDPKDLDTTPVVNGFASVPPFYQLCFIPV

[5] = target: T2, Ubiquitin-conjugating enzyme E2 N (Homo sapiens, UniProt P61088); assay type: functional;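 also: Dose-response confirmation in a TR-FRET assay detecting UBC13-driven polyubiquitin chain formation, inhibition measured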
T2 sequence (P61088 whole entry): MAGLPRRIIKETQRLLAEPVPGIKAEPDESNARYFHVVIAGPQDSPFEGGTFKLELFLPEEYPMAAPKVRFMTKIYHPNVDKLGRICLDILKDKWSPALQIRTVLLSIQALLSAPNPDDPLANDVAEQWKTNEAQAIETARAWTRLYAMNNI

[6] = target: Luciferin 4-monooxygenase (Photinus pyralis, UniProt P08659); assay: firefly luciferase enzyme inhibitors, dose response, biochemical, luminescence (AID 1891)
Luciferin 4-monooxygenase, sequence (P08659 whole entry): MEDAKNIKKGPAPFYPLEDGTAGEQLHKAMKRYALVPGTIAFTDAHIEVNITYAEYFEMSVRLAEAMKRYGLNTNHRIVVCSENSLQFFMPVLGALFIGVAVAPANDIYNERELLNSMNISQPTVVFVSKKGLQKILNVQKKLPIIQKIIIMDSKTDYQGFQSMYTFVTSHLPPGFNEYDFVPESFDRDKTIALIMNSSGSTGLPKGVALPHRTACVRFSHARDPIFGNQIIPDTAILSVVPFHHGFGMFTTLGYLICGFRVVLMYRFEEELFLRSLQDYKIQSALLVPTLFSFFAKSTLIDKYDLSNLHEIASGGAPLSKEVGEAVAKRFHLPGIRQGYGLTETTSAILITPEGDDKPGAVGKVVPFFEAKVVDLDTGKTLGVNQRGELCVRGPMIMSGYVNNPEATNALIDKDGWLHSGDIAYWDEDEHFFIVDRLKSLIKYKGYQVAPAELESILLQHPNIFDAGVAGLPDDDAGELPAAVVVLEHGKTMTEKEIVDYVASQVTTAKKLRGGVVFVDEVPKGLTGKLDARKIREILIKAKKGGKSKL

[7] = Luminescence Cell-Based Dose Confirmation HTS to Identify Inhibitors of Platelet Dense Granule Release. [Related pubchem assays: 1663 (Primary HTS), 1678 (Summary of Project)]; assay type: functional
[8] = cytotoxicity toward NIH3T3 fibroblasts, dose response, counter-screen, cell-based, ATP luminescence, mouse fibroblasts (AID 2010); assay type: functional;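 also: cells exposed to compound for about 90 hours before reading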
[9] = inhibitors of intracellular T. cruzi replication, confirmation, NIH3T3 host cells, beta-gal luminescence (AID 2044); assay type: functional, cell-based;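 also: intracellular parasites grown in NIH/3T3 mouse fibroblasts as host cells; luminescent beta-galactosidase reporter signal from transgenic T. cruzi replicating inside host cells; inhibitors lower the luminescence signal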
Cytochrome P450 3A4 = Cytochrome P450 3A4 (Homo sapiens, UniProt P08684);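 also: CYP3A4 tested as one member of a cytochrome P450 panel screen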
Cytochrome P450 3A4, sequence (P08684 whole entry): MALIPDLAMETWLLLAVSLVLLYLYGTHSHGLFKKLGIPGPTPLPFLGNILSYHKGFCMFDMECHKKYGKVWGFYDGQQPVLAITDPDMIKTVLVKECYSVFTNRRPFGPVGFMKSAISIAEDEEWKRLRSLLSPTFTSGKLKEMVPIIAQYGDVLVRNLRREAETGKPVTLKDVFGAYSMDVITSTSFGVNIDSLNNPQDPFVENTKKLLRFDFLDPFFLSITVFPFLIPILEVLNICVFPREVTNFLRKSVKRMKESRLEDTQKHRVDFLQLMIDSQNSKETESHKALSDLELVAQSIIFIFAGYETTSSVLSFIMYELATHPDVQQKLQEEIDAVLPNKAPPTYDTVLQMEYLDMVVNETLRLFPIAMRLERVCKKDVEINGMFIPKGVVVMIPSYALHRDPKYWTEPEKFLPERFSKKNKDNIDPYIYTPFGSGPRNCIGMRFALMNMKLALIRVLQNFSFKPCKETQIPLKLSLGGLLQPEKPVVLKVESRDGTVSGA

[10] = control 3'UTR Renilla luciferase suppression, dose response, counter-screen for Shn3 inhibitor project, cell-based, Clone20-Shn3RL, cherry-picked (AID 624133); assay type: functional
[11] = HepG2 cell cytotoxicity, dose response, cytotoxicity control for Shn3 inhibitor project, CellTiter-Glo, cherry-picked (AID 624134); assay type: functional, cell-based
[12] = Shn3 3'UTR reporter inhibitors, dose response, cell-based, Clone20 osteoblasts, firefly luciferase, cherry-picked (AID 624132); assay type: functional;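 also: firefly luciferase luminescence from reporter carrying the Shn3 3'UTR in osteoblasts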
Cytochrome P450 2D6 = Cytochrome P450 2D6 (Homo sapiens, UniProt P10635);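 also: CYP2D6 member of a cytochrome P450 panel assay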
Cytochrome P450 2D6, sequence (P10635 whole entry): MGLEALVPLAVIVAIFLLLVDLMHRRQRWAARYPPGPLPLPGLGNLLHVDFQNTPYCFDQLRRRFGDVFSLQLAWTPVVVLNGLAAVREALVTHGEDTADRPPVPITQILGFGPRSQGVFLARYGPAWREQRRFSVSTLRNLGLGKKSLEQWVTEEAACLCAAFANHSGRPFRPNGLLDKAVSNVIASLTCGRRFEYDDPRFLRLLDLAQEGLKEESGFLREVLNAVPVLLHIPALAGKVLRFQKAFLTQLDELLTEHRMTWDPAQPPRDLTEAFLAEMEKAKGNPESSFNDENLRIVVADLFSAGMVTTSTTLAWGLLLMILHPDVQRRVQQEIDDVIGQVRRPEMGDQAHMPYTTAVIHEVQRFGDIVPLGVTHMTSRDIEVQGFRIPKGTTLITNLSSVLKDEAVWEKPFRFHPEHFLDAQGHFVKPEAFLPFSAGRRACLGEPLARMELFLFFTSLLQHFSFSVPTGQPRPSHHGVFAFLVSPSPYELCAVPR

## Cc1cc(-c2ccc(NC(=O)[C@@H]3CCCC[C@@H]3C(=O)O)c(C)c2)ccc1NC(=O)[C@@H]1CCCC[C@@H]1C(=O)O
[1]
  CC50: 17.9 µM (active)

## COC(=O)[C@@]1(Cc2ccc(OC)cc2)[C@@H]2[C@@H](CC(=O)[C@H]2CC(=O)C(=O)N(C)C)CN1C(=O)c1ccccc1
Cytochrome P450 1A2
  AC50: 2 µM (inconclusive)
Cytochrome P450 2C9
  AC50: 39.8 µM (inconclusive)

## Sc1nnc(CSCc2ccccc2Cl)n1-c1ccccc1
Cytochrome P450 1A2
  AC50: 22.4 µM (inconclusive)
Cytochrome P450 2C9
  AC50: 5.01 µM (inconclusive)

## CC(C)CCn1nc(C(=O)Nc2nc3c(s2)CCCC3)c2ccccc2c1=O
[2]
  EC50: 16.9 µM (active)
[3]
  EC50: 12.9 µM (active)
[4]
  EC50: 12.8 µM (active)

## Cc1ccc(S(=O)(=O)N2CCN(C(=O)CN3CCN(C)CC3)C2)cc1
Cytochrome P450 1A2
  AC50: 15.8 µM (inconclusive)
Cytochrome P450 2C19
  AC50: 28.2 µM (inconclusive)

## Cc1cccc(N2CCc3c2nc2ccccc2c3N)c1
[5]
  IC50: > 20 µM (inactive)

## Cc1cc(C)c(S(=O)(=O)Nc2cccc(C(F)(F)F)c2)c(C)c1
Cytochrome P450 1A2
  AC50: 39.8 µM (inconclusive)

## COc1ccccc1-c1cc(C(=O)N2CCN(c3ccccc3)CC2)no1
[1]
  CC50: 31.9 µM (active)

## CS(=O)(=O)N1CCN(c2c(Cl)cccc2[N+](=O)[O-])CC1
Cytochrome P450 1A2
  AC50: 28.2 µM (inconclusive)
Cytochrome P450 2C9
  AC50: 0.251 µM (inconclusive)

## CC1(C)Cc2nc3sc4c(SCC(=O)NCc5ccccc5)ncnc4c3cc2CO1
[3]
  EC50: > 120 µM (not active)
[4]
  EC50: 3.72 µM (active)

## Cc1ccc(S(=O)(=O)N2CCCC2C(=O)O)cc1 (centres undefined)
[6]
  EC50: > 112 µM (not active)
[7]
  EC50: > 112 µM (not active)

## NCC12CC3CC(C1)CC(c1ccc(Cl)cc1)(C3)C2
[5]
  IC50: > 20 µM (inactive)
[8]
  EC50: > 60 µM (inconclusive)
[9]
  EC50: 2.19 µM (active)

## Cc1ccc(-n2nc3c(=O)n(CC(=O)NCc4ccc(C)o4)nc(C)c3c2C)cc1
[2]
  EC50: 17.8 µM (active)
[3]
  EC50: 109 µM (active)
[4]
  EC50: > 120 µM (not active)

## CN(C)CCN(C)CCc1ccc(Cl)c(Cl)c1
Cytochrome P450 1A2
  AC50: 39.8 µM (inconclusive)

## Cc1nc(SCC(=O)NCC2CCCO2)c2cc(-c3ccccc3)sc2n1 (centres undefined)
[1]
  CC50: 20.3 µM (active)

## Cc1ccsc1C(=O)Nc1nc2ccccc2[nH]1
[6]
  EC50: 2.67 µM (active)
[7]
  EC50: 4.71 µM (active)

## O=C(O)CCC/C=C\C[C@@H]1CO[C@H](C(F)(F)F)O[C@@H]1c1ccccc1O
Cytochrome P450 1A2
  AC50: 39.8 µM (inconclusive)
Cytochrome P450 3A4
  AC50: 15.8 µM (inconclusive)
Cytochrome P450 2C9
  AC50: 20 µM (inconclusive)
Cytochrome P450 2C19
  AC50: 10 µM (inconclusive)

## COc1ccc(-c2nn(-c3ccccc3)cc2C(=O)O)cc1
[6]
  EC50: > 112 µM (not active)
[7]
  EC50: > 112 µM (not active)

## Cc1ccc(NC(=O)c2sccc2C)nc1
[6]
  EC50: 13.9 µM (active)
[7]
  EC50: 5.98 µM (active)

## Cc1nc2cc(NC(=O)Nc3cccc(F)c3)ccc2n1C
[6]
  EC50: 5.89 µM (active)
[7]
  EC50: 7.45 µM (active)

## CCNc1ncc2nc(-c3ccc(OC)cc3)c(=O)n(CCOC)c2n1
Cytochrome P450 1A2
  AC50: 1.26 µM (inconclusive)
Cytochrome P450 3A4
  AC50: 15.8 µM (inconclusive)

## CCOC(=O)c1c(NC(=O)Cc2cccs2)sc(C(=O)N2CCCCC2)c1C
[2]
  EC50: 14.6 µM (active)
[3]
  EC50: 22.2 µM (active)
[4]
  EC50: > 120 µM (not active)

## CCCC(=O)Nc1cc(C(=O)N2CCC3(CC2)OCCO3)ccc1S(=O)(=O)c1ccc(C)cc1
[2]
  EC50: > 120 µM (not active)
[3]
  EC50: > 120 µM (not active)
[4]
  EC50: > 120 µM (not active)

## O=C(CSc1nnc2ccccn12)NNC(=O)c1ccc([N+](=O)[O-])cc1
[6]
  EC50: > 112 µM (not active)
[7]
  EC50: > 112 µM (not active)

## COc1ccccc1OC[C@H](O)COC(N)=O
Cytochrome P450 1A2
  AC50: 10 µM (inconclusive)

## Cc1ccc(CNc2nc(N)c([N+](=O)[O-])c(Nc3ccc(F)cc3)n2)cc1
Cytochrome P450 1A2
  AC50: 1.12 µM (inconclusive)
Cytochrome P450 3A4
  AC50: 2 µM (inconclusive)
Cytochrome P450 2C9
  AC50: 3.55 µM (inconclusive)

## O=C(c1ccncc1)N1CCC[C@@]2(CCN(c3ccccn3)C2)C1
Cytochrome P450 1A2
  AC50: 20 µM (inconclusive)
Cytochrome P450 2C9
  AC50: 20 µM (inconclusive)

## Cc1ccccc1N=C(S)c1ccc2ccccc2n1
[6]
  EC50: > 112 µM (not active)
[7]
  EC50: > 112 µM (not active)

## COC(=O)c1c(-c2cccc3ccccc23)csc1NC(=O)Cc1ccc(OC)c(OC)c1
[6]
  EC50: > 112 µM (not active)
[10]
  AC50: 16.9 µM (active)
[8]
  EC50: 12.6 µM (active)
[7]
  EC50: > 112 µM (not active)
[11]
  AC50: > 70 µM (inactive)
[9]
  EC50: 2.49 µM (active)
[12]
  AC50: 5.43 µM (active)

## Nc1nc2sc3c(c2cc1C(=O)N1CCOCC1)CCCC3
[6]
  EC50: > 112 µM (not active)
[7]
  EC50: > 112 µM (not active)

## CCc1ccc2oc(-c3cc(N)ccc3Cl)nc2c1
[1]
  CC50: 41.3 µM (active)

## O=C(CN1CCCCC1)Nc1cccc([N+](=O)[O-])c1
Cytochrome P450 1A2
  AC50: 39.8 µM (inconclusive)
Cytochrome P450 2D6
  AC50: 15.8 µM (inconclusive)
Cytochrome P450 2C19
  AC50: 14.1 µM (inconclusive)

## O=C(CSc1nnc(-c2cccc(S(=O)(=O)N3CCOCC3)c2)n1C1CCCCCC1)NCc1ccccc1
Cytochrome P450 1A2
  AC50: 39.8 µM (inconclusive)
Cytochrome P450 2C9
  AC50: 14.1 µM (inconclusive)
Cytochrome P450 2D6
  AC50: 7.94 µM (inconclusive)
Cytochrome P450 2C19
  AC50: 31.6 µM (inconclusive)

## C#CCOCCOCCOCCNc1nc(N2CCN(C(=O)[C@H]([C@@H](C)CC)n3cc(CCCCN)nn3)CC2)nc(N2CCN(C(=O)[C@H]([C@@H](C)CC)n3cc(CCCN=C(N)N)nn3)CC2)n1
[5]
  IC50: > 20 µM (inactive)

## C#CCOCCOCCOCCNc1nc(N2CCN(C(=O)C([C@@H](C)O)n3cc([C@@H](N)CCCCN)nn3)CC2)nc(N2CCN(C(=O)[C@H](CCCCN)n3cc([C@@H](N)CC(N)=O)nn3)CC2)n1 (some centres undefined)
[5]
  IC50: > 20 µM (inactive)

## CCC[C@@H](CN1CCC[C@H]1CN1C(N)=NC[C@H]1C(C)C)N1C[C@@H](Cc2ccccc2)N(CCCC2CCCC2)C1=N
[5]
  IC50: > 20 µM (inactive)

## O=C(O)[C@H]1C[C@@H](CP(=O)(O)O)CCN1
Cytochrome P450 1A2
  AC50: 25.1 µM (inconclusive)

## CCOc1cccc(-c2c(C(=O)N/N=C/c3ccco3)nnn2-c2nonc2N)c1
[6]
  EC50: > 112 µM (not active)
[7]
  EC50: 14.8 µM (active)

## CO/C(O)=C1\C(C)=Nc2nnnn2C1c1cc(OC)ccc1OC (centres undefined)
[2]
  EC50: > 120 µM (not active)
[3]
  EC50: 18.3 µM (active)
[4]
  EC50: > 120 µM (not active)

## Cc1ccccc1/C=N/NC1=NC(=O)CCS1
[1]
  CC50: 26.4 µM (active)
